Reference: US20150265682A1, “THERAPEUTIC METHODS AND COMPOSITIONS FOR TREATING DIABETES” (Orient Europharma Co., Ltd., priority 2014, published 2015)

Legend:
[1] = tested on: normal, T1DM and T2DM mice; experiment: Plasma insulin levels before and after treatment; type: in vivo, ICR mice; settings: for Plasma insulin Before-treatment: metformin 300 mgkg^−1 group; for Plasma insulin After-treatment: metformin 300 mgkg^−1 i.p.
Experimental: The 4-week-old male ICR mice were purchased from the Animal Center of the College of Medicine, National Taiwan University (Taipei, Taiwan) with delicate humane care. This animal study was conducted by following the University ethical guidelines and the ‘Guide for the Care and Use of Laboratory Animals’ published by the US National Institutes of Health (NIH publication no. 85-23, revised 1996). The animal experiments were approved by the Institutional Animal Care and Use Committee (IACUC) of the National Taiwan University (IACUC No. 20110073). Animals were housed in a room at the constant temperature, 22±1° C., with 12 hours light and dark cycles.
(§1) After three days of acclimatization, the mice had free access to a standard rodent chow (normal mice), a standard rodent chow after single […] streptozotocin (STZ) intraperitoneal injection (T1DM mice), and a fat-rich chow diet and fructose-sweetened water (T2DM mice) for 4 weeks. The induction of Type 1 DM was assessed and confirmed when the mice had plasma glucose levels ≧350 mgdL^−1, accompanied with polyuria, hyperphagia and decreased body weight. The induction Type 2 DM in the mice was assessed by measuring fasting plasma glucose levels and confirmed when plasma glucose level was ≧150 mgdL^−1 after the 4-week induction. The animals were assigned randomly into three groups, with seven animals in each group. In group I, the mice were treated with vehicle, 2% DMSO in normal saline, as the negative control. In group II, the mice were intraperitoneally treated with borapetoside A (0.1-10 mgkg^−1). In group Ill, the positive control, the mice received intraperitoneally metformin (300 mgkg^−1; Sigma Chemical Co., St. Louis, Mo., U.S.A.) or insulin (0.5 IUkg^−1; Insulin Actrapid® HM; Novo Nordisk, Denmark). In the acute study, mice under anesthesia received a single intraperitoneal administration of borapetoside A, negative control, or positive control. In the subacute study, mice received intraperitoneal administrations of borapetoside A, vehicle, or insulin twice a day for seven days.
(§2) Blood samples were collected from the orbital vascular plexus of the mice under anesthesia. Blood samples were then centrifuged at 13000 rpm for 5 min, and the plasma samples were collected and kept on ice prior to the assay. The plasma glucose concentration was measured by Glucose Kit Reagent (Biosystems S. A., Barcelona, Spain) following the manufacturer's instructions, and the insulin levels were estimated using mouse insulin ELISA kit (Mercodia AB, Uppsala, Sweden).

[2] = tested on: normal mice and mice with type 2 DM; experiment: Intraperitoneal glucose tolerance test (IPGTT); type: in vivo, ICR mice; settings: normal and type 2 DM mice; borapetoside A 0.1, 1 and 10 mgkg^−1; metformin
Experimental: as §1, §2
The mice were maintained under anesthesia throughout the procedure. Glucose (2.0 gkg^−1) was administered intraperitoneally. Blood samples were collected from the orbital vascular plexus at 0, 30, 60, 120 min. The concentrations of the plasma glucose were measured, and the values of AUC were calculated accordantly.

With `CN(C)C(=N)N=C(N)N` [Metformin, metformin, reference compound] the “Plasma insulin Before-treatment” value ([1]; Normal mice) was 66.6 ± 1.3 pmol/L, the “Plasma insulin After-treatment” value ([1]; Normal mice) was 72 ± 3.1 pmol/L and the “Plasma insulin Before-treatment” value ([1]; T1DM mice) was 22.4 ± 0.4 pmol/L. For the same compound, the “Plasma insulin After-treatment” value ([1]; T1DM mice) was 22.7 ± 0.3 pmol/L, the “Plasma insulin Before-treatment” value ([1]; T2DM mice) was 148.1 ± 15.2 pmol/L and the “Plasma insulin After-treatment” value ([1]; T2DM mice) was 182.0 ± 27.7 pmol/L. For the same compound, the “increase of plasma glucose level at 30 min in IPGTT, compared to the vehicle group” value [2] was “significantly suppressed”.
